The values that follow come from patent publication US10542745B2, “Portable device for ex vivo stimulation of whole blood” (Hitachi Chemical Co., Ltd., priority 2010, dated 2020).

Holding throughout (format): cell-based
Experiment [1] deals with blood. Description: Ex vivo stimulation of blood in strip wells, then 4° C. storage; ACTB, p21 and PUMA mRNA quantified. Particulars: for levels of both p21 and PUMA after 3 days of post-stimulation storage: stored at 4° C. for 3 days after stimulation, higher Ct values. As to the method:
(§1) Briefly, 96-well filterplates were assembled with leukocyte reduction membranes (Leukosorb; Pall) and placed over oligo(dT)-immobilized collection plates. 150 μL of 5 mmol/L Tris (pH 7.4) was applied to wet the filter membranes. After centrifugation at 120 g for 1 min at 4° C. to remove the Tris solution from the membranes, 50 μL of the stimulated whole blood samples was applied to each well and immediately centrifuged at 120 g for 2 min at 4° C. The wells were then washed once with 300 μL of phosphate-buffered saline. After centrifugation at 2000 g for 5 min at 4° C. to remove the saline solution, 60 μL of stock lysis buffer [5 g/L N-lauroylsarcosine, 4× standard saline citrate, 10 mmol/L Tris-HCl (pH 7.4), 1 mmol/L EDTA, 1 mL/L IGEPAL CA-630 (substitute of NP-40), 1.79 mol/L guanidine thiocyanate (all from Sigma)], supplemented with 10 mL/L 2-mercaptoethanol (Bio-Rad), 0.5 g/L proteinase K (Pierce), 0.1 g/L salmon sperm DNA (5 Prime Eppendorf/Brinkman), 0.1 g/L Escherichia coli tRNA (Sigma), 5 nmol/L each of the specific reverse primers, and 10^10 molecules/L of synthetic RNA34 (as external control), was added to each well of the filterplates. The plates were then incubated at 37° C. for 10 min, placed over oligo(dT)-immobilized collection microplates (GenePlate; RNAture), and centrifuged at 2000 g for 5 min at 4° C. After overnight storage at 4° C., the microplates were washed 3 times with 100 μL of plain lysis buffer and then 3 times with 150 μL of wash buffer [0.5 mol/L NaCl, 10 mmol/L Tris (pH 7.4) 1 mmol/L EDTA] at 4° C.
cDNA was synthesized directly in each well by addition of 30 μL of buffer containing 1× reverse transcription buffer [50 mM KCl, 10 mM Tris-HCl (pH 8.3), 5.5 mM MgCl2, 1 nL/μL Tween 20], 1.25 mM each deoxynucleoside triphosphate, 4 units of rRNasin, and 80 U of MMLV reverse transcriptase (Promega; without primers) and incubation at 37° C. for 2 h. From each 30-μL reaction, 4 μL of cDNA was transferred directly to 384-well PCR plates, and 5 μL of TaqMan universal master mixture (Applied Biosystems) and 1 μL of 5 μM each of the forward and reverse primers for each mRNA or beta-actin were added. PCR was carried out in a PRISM 7900HT (Applied Biosystems), with 1 cycle of 95° C. for 10 min followed by 45 cycles of 95° C. for 30 s, 55° C. for 30 s, and 60° C. for 1 min. Each gene was amplified in separate wells. The cycle threshold (Ct), i.e., the cycle at which certain amounts of PCR products (based on fluorescence) were generated, was determined with analytical software (SDS; Applied Biosystems). The ΔCt were determined by subtracting each Ct of PHA-treated sample from each Ct of PBS-treated control sample, and the fold increase was calculated by 2^-ΔCt.
In order to evaluate the stability of samples after stimulation, blood was stimulated with DNR (10 μM in final concentration), AraC (100 μM in final concentration), or PBS in strip wells for 4 hours at 37° C., and then stored at 4° C. for 0-3 days. After the 4° C. incubation, the samples were stored in a −80° C. freezer until analysis. These experimental conditions are designed to represent the possible conditions a sample would be exposed to during transport in the portable incubation devices described herein. Three mRNAs (ACTB, p21, and PUMA) were quantified as described above.

In experiment [2] the test system is blood. Description: Time course of mRNA induction in blood at two incubation temperatures (ACTB, IL2, CXCL9). Particulars: strip wells, 42° C. vs 37° C., 0-9 hours; FIGS. 12C and 12F. As to the method:
Briefly, 96-well filterplates were assembled with leukocyte reduction membranes (Leukosorb; Pall) and placed over oligo(dT)-immobilized collection plates. 150 μL of 5 mmol/L Tris (pH 7.4) was applied to wet the filter membranes. After centrifugation at 120 g for 1 min at 4° C. to remove the Tris solution from the membranes, 50 μL of the stimulated whole blood samples was applied to each well and immediately centrifuged at 120 g for 2 min at 4° C. The wells were then washed once with 300 μL of phosphate-buffered saline. […]
(§2) cDNA was synthesized directly in each well by addition of 30 μL of buffer containing 1× reverse transcription buffer [50 mM KCl, 10 mM Tris-HCl (pH 8.3), 5.5 mM MgCl2, 1 nL/μL Tween 20], 1.25 mM each deoxynucleoside triphosphate, 4 units of rRNasin, and 80 U of MMLV reverse transcriptase (Promega; without primers) and incubation at 37° C. for 2 h. […] The cycle threshold (Ct), i.e., the cycle at which certain amounts of PCR products (based on fluorescence) were generated, was determined with analytical software (SDS; Applied Biosystems). The ΔCt were determined by subtracting each Ct of PHA-treated sample from each Ct of PBS-treated control sample, and the fold increase was calculated by 2^-ΔCt.
The time course of induction was also evaluated for two different incubation temperatures. […] ACTB, IL2, andCXCL9 mRNA were quantified.

The subject of experiment [3] is blood. Briefly: Induction of IL2 or CXCL9 after incubation in the portable device vs controlled incubators. To be noted: FIGS. 13A and 13B. As to the method: FIGS. 13A and 13B depict a comparison of the level of induction of 1L2 or CXCL9 when stimulated by PHA or IFN alpha and then incubated in the portable device disclosed herein or in controlled incubators (at a variety of temperatures). […] This again represents the degree of flexibility in temperatures and times that can be used (as disclosed above) to perform ex vivo stimulation of blood samples.

The test system of experiment [4] is blood. Description: IFNa2b stimulation of blood: vacuum tube vs multi-well strip, immediate vs delayed. How it is done: as §1, with “After overnight storage at 4° C., the microplates were washed 3 times with 100 μL of plain lysis buffer and then 3 times with 150 μL of wash buffer [0.5 mol/L NaCl, 10 mmol/L Tris (pH 7.4) 1 mmol/L EDTA] at 4° C.” left out
as §2, with “2^-ΔCt. […]” for “2^-ΔCt.”

Experiment [5] relates to blood. Description: PHA stimulation of blood: PHA-containing collection tubes vs multi-well strip. To be noted: 37° C. for 4 hours; FIGS. 9A-9D. How it is done:
Blood collection tubes were manufactured as described above. Three tubes were stored at 4° C. (tubes PHA 4C #1, #2, and #3 in FIG. 9) or room temperature (PHA RT in FIG. 9) for 20 days. Blood was then drawn into 6 tubes: a control heparin tube, a plain heparin tube, and 4 PHA-containing tubes. The blood from the control heparin tube was stimulated (by PBS or PHA) in micro-plate tube strips (3 wells each, 60 μL blood/well). The remaining 5 tubes were incubated at 37° C. for 4 hours. Various mRNA were quantified by using SYBR green real time PCR as described previously (Mitsuhashi M et al. Clin. Chem. 52:634-642, 2006). […]
as §2

Where [6] appears, read: DNR 10 μM or AraC 100 μM final, 4 hours at 37° C., vs PBS.
The mark [7] stands for this setting: DNR 10 μM or AraC 100 μM final, 4 hours at 37° C., vs PBS, FIGS. 11A-11B.
Where [8] appears, read: blood stored at 4° C. for 6 hours before ex vivo stimulation.

Turning to `Nc1ccn([C@@H]2O[C@H](CO)[C@@H](O)[C@@H]2O)c(=O)n1` [AraC, cytarabine], in the experiment on blood [1] (setting [6]), the PUMA expression induction entry is “induced”. Moreover, the “beta actin mRNA induction” value with blood [1] (setting [7]) is “not induced”. The “levels of both p21 and PUMA after 3 days of post-stimulation storage” value with blood [1] is on record as “appear to have decreased”.

Consider `COc1cccc2c1C(=O)c1c(O)c3c(c(O)c1C2=O)C[C@@](O)(C(C)=O)C[C@@H]3O[C@H]1C[C@H](N)[C@H](O)[C@H](C)O1` [DNR, daunorubicin], for which the PUMA expression induction entry with blood [1] (setting [6]) was “induced”. In the experiment on blood [1] (setting [7]), the “beta actin mRNA induction” value was “not induced” and the “p21 mRNA induction” value is “significant induction”. In addition, in the experiment with blood [1], the “levels of both p21 and PUMA after 3 days of post-stimulation storage” value was “appear to have decreased”.

As for interferon alpha 2b [IFNa2b], in the experiment with blood [2], the CXCL-9 induction result is “induced to a similar extent”. Besides, the “CXCL9 induction, portable device vs controlled incubators” value in the experiment on blood [3] is listed as “not significantly different”. Moreover, the “performance of IFNa2b tube vs conventional IFNa2b stimulation in strip wells” value in the experiment with blood [4] (2 hours at 37° C. immediately after blood draw, FIGS. 10A-10C) is listed as “identical”. For the same compound, in the experiment with blood [4] (setting [8]), the CXCL10 induction entry is reported as “less induction” and the GIP2 induction entry is recorded as “less induction”.

On to phytohemaglutinin [PHA], for which the “mRNA (beta-actin, interferon gamma, interleukin 2, GM-CSF): stimulation in multi-well strip vs PHA-containing blood collection tubes” value in the experiment with blood [5] was “no differences were detected”. Besides, the “IL2 induction, portable device vs controlled incubators” value with blood [3] is “not significantly different”.
